Source: patent publication US12398121B2 (Nuvation Bio Inc., priority 2018, dated 2025)
Like-named read-outs stand apart in the source and are kept apart here.

How the values were obtained:
[1] = target: Human recombinant PARP2 (Homo sapiens, UniProt Q9UGN5); experiment: RBC HotSpot PARP2 radioisotope-based filter binding assay; assay type: biochemical
Experimental: The following methods are for evaluating the in vitro biology properties of the test articles. • a. RBC HotSpot Poly(ADP-ribose) Polymerases 1 (PARP1) and Poly(ADP-ribose) Polymerases 2 (PARP2) Assays: The assay principle is radioisotope-based filter binding assay where incorporation of radioisotope-labeled NAD^+ into the substrate captured on filter is detected after washout free NAD^+. Data were analyzed using Excel and GraphPad Prism software for IC50 curve fits. Each assay was conducted with PJ34 as a positive control. • i. PARP1 assay: Human recombinant PARP1 at a final concentration of 2.5 nM was combined with histone H4 (20 μM) and test articles at various concentrations in reaction buffer (50 mM Tris-HCL, pH 8.0, 50 mM NaCl, 10 mM MgCl2, 1 mM DTT, 1% DMSO, and 20 μg/mL activated DNA). The solution was inoculated for 20 min at room temperature and the reaction initiated by adding [adenylate-^32P]-Nicotinamide Adenine Dinucleotide, ^32P-NAD^+ at a final concentration of 10 μM. After incubation for 2 hour at room temperature, the reaction mixture was filtered and washed with 0.75% phosphoric acid for radioactivity detection. • ii. PARP2 assay: Human recombinant PARP2 at a final concentration of 2.5 nM was combined with histone H3 (20 μM) and test articles at various concentrations in reaction buffer (50 mM Tris-HCL, pH 8.0, 50 mM NaCl, 10 mM MgCl2, 1 mM DTT, 1% DMSO, and 20 μg/mL activated DNA). The solution was inoculated for 20 min at room temperature and the reaction was initiated by adding [adenylate-^32P]-Nicotinamide Adenine Dinucleotide, ^32P-NAD^+ at a final concentration of 10 μM. After incubation for 2 hour at room temperature, the reaction mixture was filtered and washed with 0.75% phosphoric acid for radioactivity detection. • b. AR binding assay: AR in LNCaP cytosol was used for determining the binding affinity of test articles and the reference compound—progesterone (Sigma, Cat: E2785, St. Louis, MO). IC50s were determined using 8 concentrations/compound. Cytosol was plated at 200 μg/well (100 μL) into a 96-well conical polypropylene plate (Agilent, Cat: 5042-1385, Santa Clara, CA) and mixed with 3 μL of test compound. After adding 100 μL of ^3H-methyltrienolone (PerkinElmer, Cat: NET590250UC, San Jose, CA), the plate was sealed and shaken at 300 rpm at 4° C. for 24 hours. Post incubation, 100 μL of radioligand adsorption buffer containing 10 mM Tris-HCl, pH 7.4; 1.5 mM EDTA; 1 mM DTT; 0.25% charcoal; 0.0025% dextran was added to individual well. Plate was shaken for 15 min at 4′C followed by centrifugation at 3000 rpm for 30 min at 4° C. 150 μL of supernatant was transferred into scint-tube (PerkinElmer, Cat: 6000192) and mixed with 2 mL of Ultima Gold Cocktail (PerkinElmer, Cat: 6013329). Radioactivity was counted using a TriCarb 2910 TR scintillation counter (PerkinElmer). Inhibition of the radioactivity by test articles were calculated using the equation below: % Inhibition=(1−(Assay well−Average_LC)/(Average_HC−Average_LC))×100%.

[2] = tested on: 22RV1 cells; experiment: Cell proliferation assay (CellTiter Glo), 22RV1; assay type: cell-based; conditions: Homo sapiens, 22Rv1, 72 h, read-out: 22RV1 IC50
Experimental: IC50 values were calculated and graphed using the model “log(inhibitor) vs. response—Variable slope” included in GraphPad Prism 5 (San Diego, CA). The Ki values were further calculated using the equation below where [L] was the radioligand concentration (1 nM) using in this study. Kd value was 0.332 nM. Ki=IC50/(1+[L]/Kd) c. AR transactivation: Human AR cloned into a CMV vector backbone was used for the transactivation study. HEK-293 cells were plated at 80,000 cells per well of a 24 well plate in DME+5% csFBS. Twenty four hours later, the cells were transfected using Lipofectamine (Invitrogen, Carlsbad, CA) with 0.25 μg GRE-LUC, 0.01 μg CMV-LUC (renilla luciferase) and 25 ng of the AR in OPTIMEM medium. The cells were treated 24 hrs after transfection with various ligands (10^−12 to 10^−5 M final concentrations) and luciferase assay were performed 48 hours after transfection. Firefly values were normalized to renilla luciferase values and the values were represented as relative light units (RLU). Agonist and antagonist assays for the test article were performed in the absence and in the combination with 0.1 nM R1881, respectively. Data were represented as EC50 (for agonists) and IC50 (for antagonists) obtained from four parameter logistics curve. Cell culture and proliferation assays: LNCaP, PC-3, 22RV1, MCF-7, HT-29, and HCT-116 cells were procured from American Type Culture Collection (ATCC). Cells were cultured in medium recommended by the ATCC. Cell culture medium was obtained from Fisher scientific (Waltham, MA) and serum was obtained from Hyclone (San Angelo, TX).
Cells were plated at varying density in the respective growth medium in 96 well plates. 24 hr later, cells were treated, in triplicate or quadruplicate, with test articles prepared in a range of concentrations by series dilution of DMSO stock solutions in growth medium and incubated for three to seven days. The number of viable 22RV1 and HT-29 cells was measured using CellTiter Glo assay (CTG, Promega, Madison, WI) after three days of treatment. The other types of cancer cells were re-treated at three or four days and the number of viable cells was measured using CTG assay after a total treatment time of six or seven days. Cell viability data were plotted using GraphPad Prism (GraphPad Software, Inc., San Diego, CA). In addition, a nonlinear regression model with a sigmoidal dose response and variable slope within GraphPad Prism was used to calculate the IC50 value of individual test articles. Additional cell proliferation assays: Other cancer cell lines are tested in a cell proliferation assay. For example, SK-OV-3 or OVCAR3 ovarian cancer cells are tested. Cells are cultured in medium recommended by the supplier (e.g., ATCC or JCRB Cell Bank), at 37° C. in a 5% CO2 environment. For the proliferation assay, cells are plated in the growth medium in 96 well plates. Seeding density is adjusted according to the cell type. 24 hr later, cells are treated, in triplicate or quadruplicate, with test articles prepared in a range of concentrations by series dilution of DMSO stock solutions in growth medium, and typically incubated for three to seven days, with test article-containing medium replaced after three or four days. The number of viable cells is measured using CellTiter Glo assay (CTG, Promega, Madison, WI) or similar. Cell viability data are plotted using GraphPad Prism (GraphPad Software, Inc., San Diego, CA). In addition, a nonlinear regression model with a sigmoidal dose response and variable slope within GraphPad Prism is used to calculate the IC50 value of individual test articles. Similarly, HEK-293 and HeLa calls can also be tested by methods known in the art. • f. Nuclear translocation: LNCaP cells are plated on coverslips in 24 well plates in growth medium. Twenty-four hours after plating, medium is changed to RPMI+1% csFBS and the cells are maintained in this medium for two days. Medium is replaced again and the cells are treated. […]

[3] = 2.5 nM enzyme, histone H3, 10 μM 32P-NAD+, read-out: PARP2 IC50
[4] = cell growth inhibition, three days of treatment

Human recombinant PARP2, sequence (Q9UGN5 whole entry): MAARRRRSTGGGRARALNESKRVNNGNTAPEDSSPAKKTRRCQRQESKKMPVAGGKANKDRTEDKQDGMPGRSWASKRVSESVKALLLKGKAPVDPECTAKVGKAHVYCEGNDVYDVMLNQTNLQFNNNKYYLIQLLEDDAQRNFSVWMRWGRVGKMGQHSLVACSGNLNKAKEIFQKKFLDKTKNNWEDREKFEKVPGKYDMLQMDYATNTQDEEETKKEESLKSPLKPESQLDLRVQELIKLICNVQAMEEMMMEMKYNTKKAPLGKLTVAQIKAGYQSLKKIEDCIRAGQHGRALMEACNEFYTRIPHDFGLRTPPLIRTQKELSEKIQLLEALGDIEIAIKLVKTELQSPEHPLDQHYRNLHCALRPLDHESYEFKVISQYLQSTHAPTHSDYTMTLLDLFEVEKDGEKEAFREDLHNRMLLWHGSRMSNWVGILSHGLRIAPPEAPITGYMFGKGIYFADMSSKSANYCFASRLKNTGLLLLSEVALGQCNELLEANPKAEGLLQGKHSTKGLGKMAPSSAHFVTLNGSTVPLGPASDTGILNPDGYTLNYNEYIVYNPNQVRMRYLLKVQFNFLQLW

Row | Structure (SMILES) | IC50 [1] [nM] | IC50 [2] [nM] | IC50 [1, 3] [nM] | IC50 [2, 4] [nM]
1 | CC(O)(CS(=O)(=O)c1ccc(NCCn2cc(CN3CCN(C(=O)c4cc(Cc5n[nH]c(=O)c6ccccc56)ccc4F)CC3)nn2)cc1)C(=O)Nc1ccc(C#N)c(C(F)(F)F)c1 (stereo in doubt) [Compound 1.97, (S)-N-(4-cyano-3-(trifluoromethyl)phenyl)-3-(4-(2-(4-((4-(2-fluoro-5-((4-oxo-3,4-dihydrophthalazin-1-yl)methyl)benzoyl)piperazin-1-yl)methyl)-1H-1,2,3-triazol-1-yl)ethylamino)phenylsulfonyl)-2-hydroxy-2-methylpropanamide] | 0.4 | > 30000 | – | –
2 | C[C@]12CCC(=O)C[C@@H]1CC[C@@H]1[C@@H]2CC[C@@]2(C)[C@H]1CC[C@@]2(O)c1cn(CC(=O)N2CCN(C(=O)c3cc(Cc4n[nH]c(=O)c5ccccc45)ccc3F)CC2)nn1 [Compound 1.107, 4-(4-fluoro-3-(4-(2-(4-((5S,8R,9S,10S,13S,14S,17S)-17-hydroxy-10,13-dimethyl-3-oxohexadecahydro-1H-cyclopenta[a]phenanthren-17-yl)-1H-1,2,3-triazol-1-yl)acetyl)piperazine-1-carbonyl)benzyl)phthalazin-1(2H)-one] | – | – | 0.1 | 1300
3 | C[C@](O)(CS(=O)(=O)c1ccc(NCC(=O)N2CCN(C(=O)c3cc(Cc4n[nH]c(=O)c5ccccc45)ccc3F)CC2)cc1)C(=O)Nc1ccc(C#N)c(C(F)(F)F)c1 [Compound 1.98, (R)-N-(4-cyano-3-(trifluoromethyl)phenyl)-3-(4-(2-(4-(2-fluoro-5-((4-oxo-3,4-dihydrophthalazin-1-yl)methyl)benzoyl)piperazin-1-yl)-2-oxoethylamino)phenylsulfonyl)-2-hydroxy-2-methylpropanamide] | 0.1 | 3500 | – | –
4 | CN(CCCCCC(=O)N1CCN(C(=O)c2cc(Cc3n[nH]c(=O)c4ccccc34)ccc2F)CC1)CCOc1ccc(C(=O)c2c(-c3ccc(O)cc3)sc3cc(O)ccc23)cc1 [Compound 2.4, 4-(4-fluoro-3-(4-(6-((2-(4-(6-hydroxy-2-(4-hydroxyphenyl)benzo[b]thiophene-3-carbonyl)phenoxy)ethyl)(methyl)amino)hexanoyl)piperazine-1-carbonyl)benzyl)phthalazin-1(2H)-one] | – | – | 0.3 | –
5 | C[C@](O)(CS(=O)(=O)c1ccc(NCCCCCC(=O)N2CCN(C(=O)c3cc(Cc4n[nH]c(=O)c5ccccc45)ccc3F)CC2)cc1)C(=O)Nc1ccc(C#N)c(C(F)(F)F)c1 [Compound 1.68, (R)-N-(4-cyano-3-(trifluoromethyl)phenyl)-3-(4-(6-(4-(2-fluoro-5-((4-oxo-3,4-dihydrophthalazin-1-yl)methyl)benzoyl)piperazin-1-yl)-6-oxohexylamino)phenylsulfonyl)-2-hydroxy-2-methylpropanamide] | 0.2 | 4700 | – | –
6 | C[C@]12CCC(=O)C[C@@H]1CC[C@@H]1[C@@H]2CC[C@@]2(C)[C@H]1CC[C@@]2(O)C#CC(=O)N1CCN(C(=O)c2cc(Cc3n[nH]c(=O)c4ccccc34)ccc2F)CC1 [Compound 1.116, 4-(4-fluoro-3-(4-(3-((5S,8R,9S,10S,13S,14S,17S)-17-hydroxy-10,13-dimethyl-3-oxohexadecahydro-1H-cyclopenta[a]phenanthren-17-yl)propioloyl)piperazine-1-carbonyl)benzyl)phthalazin-1(2H)-one] | – | – | 0.2 | 2600
7 | C[C@](O)(CS(=O)(=O)c1ccc(NCCN2CCN(C(=O)c3cc(Cc4n[nH]c(=O)c5ccccc45)ccc3F)CC2)cc1)C(=O)Nc1ccc(C#N)c(C(F)(F)F)c1 [Compound 1.99, (R)-N-(4-cyano-3-(trifluoromethyl)phenyl)-3-(4-(2-(4-(2-fluoro-5-((4-oxo-3,4-dihydrophthalazin-1-yl)methyl)benzoyl)piperazin-1-yl)ethylamino)phenylsulfonyl)-2-hydroxy-2-methylpropanamide] | 0.2 | 3600 | – | –
8 | C[C@]12CCC(O)C[C@@H]1CC[C@@H]1[C@@H]2CC[C@]2(C)[C@@H](OCCCCCC(=O)N3CCN(C(=O)c4cc(Cc5n[nH]c(=O)c6ccccc56)ccc4F)CC3)CC[C@@H]12 (stereo partly drawn) [Compound 1.111, 4-(4-fluoro-3-(4-(6-((5S,8R,9S,10S,13S,14S,17S)-3-hydroxy-10,13-dimethylhexadecahydro-1H-cyclopenta[a]phenanthren-17-yloxy)hexanoyl)piperazine-1-carbonyl)benzyl)phthalazin-1(2H)-one] | – | – | 0.2 | 890
9 | CCC(=C(c1ccc(O)cc1)c1ccc(OCCN2CCN(C(=O)c3cc(Cc4n[nH]c(=O)c5ccccc45)ccc3F)CC2)cc1)c1ccccc1 [Compound 2.14, 4-(4-fluoro-3-(4-(2-(4-(1-(4-hydroxyphenyl)-2-phenylbut-1-enyl)phenoxy)ethyl)piperazine-1-carbonyl)benzyl)pthalazin-1(2H)-one] | – | – | 12.4 | –
10 | CC1(C)C(=O)N(c2ccc(C#N)c(C(F)(F)F)c2)C(=S)N1c1ccc(C(=O)NCCCCCC(=O)N2CCN(C(=O)c3cc(Cc4n[nH]c(=O)c5ccccc45)ccc3F)CC2)c(F)c1 [Compound 1.1, 4-(3-(4-cyano-3-(trifluoromethyl)phenyl)-5,5-dimethyl-4-oxo-2-thioxoimidazolidin-1-yl)-2-fluoro-N-(6-(4-(2-fluoro-5-((4-oxo-3,4-dihydrophthalazin-1-yl)methyl)benzoyl)piperazin-1-yl)-6-oxohexyl)benzamide] | 0.2 | – | – | –
